This is an account of results in ChEMBL document CHEMBL1201862, “PubChem BioAssay data set” (2004).

In one test the test system is HEK293. The experiment in a line: inhibitors of LMP1-driven NF-kB reporter, dose response, cell-based, HEK293, luciferase, cherry-pick (AID 588343). Type of test: functional. The note with it: Homo sapiens.
The subject of test [1] is BJ. The experiment in a line: cells. Type of test: functional, cell-based. Conditions: Homo sapiens.
Test [2] concerns BJ. As to the kind of experiment: cytotoxicity toward BJ-TERT fibroblasts, dose response, cell-based, RAS-independent, luminescence (AID 1933). Type of test: functional. The note with it: Homo sapiens.
Test [3] in a line: cytotoxicity toward DRD oncogenic fibroblasts, dose response, cell-based, non-viral oncogenic, luminescence (AID 1934). Type of test: functional. The note with it: Homo sapiens.
Test [4] concerns Vero. The experiment in a line: cells. Type of test: functional. The note with it: Chlorocebus sabaeus.
Test [5] has as its system BJ. As to the kind of experiment: cytotoxicity toward BJ-TERT-LT-ST fibroblasts, dose response, cell-based, RAS-independent, luminescence (AID 1935).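 Note: BJ fibroblasts immortalized with TERT plus LT and ST oncogenes.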 The note with it: Homo sapiens. Type of test: functional.
Test [6] relates to BJ. The experiment in a line: cytotoxicity toward Ras-transformed BJeLR fibroblasts, dose response, cell-based, alamar blue fluorescence, cherrypicked samples (AID 2631).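 Note: confirmatory dose-response assay in RAS-dependent BJ fibroblasts engineered with TERT, LT and ST, with cytotoxicity read by fluorescence.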 Type of test: functional. Conditions: Homo sapiens.
The target of test [7] is T1, Sentrin-specific protease 7 (Homo sapiens, UniProt Q9BQF6).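 Note: Luminescence-based dose-response confirmation of ultra-high-throughput screening hits, measuring inhibition of SENP7.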
T1 sequence (Q9BQF6 whole entry): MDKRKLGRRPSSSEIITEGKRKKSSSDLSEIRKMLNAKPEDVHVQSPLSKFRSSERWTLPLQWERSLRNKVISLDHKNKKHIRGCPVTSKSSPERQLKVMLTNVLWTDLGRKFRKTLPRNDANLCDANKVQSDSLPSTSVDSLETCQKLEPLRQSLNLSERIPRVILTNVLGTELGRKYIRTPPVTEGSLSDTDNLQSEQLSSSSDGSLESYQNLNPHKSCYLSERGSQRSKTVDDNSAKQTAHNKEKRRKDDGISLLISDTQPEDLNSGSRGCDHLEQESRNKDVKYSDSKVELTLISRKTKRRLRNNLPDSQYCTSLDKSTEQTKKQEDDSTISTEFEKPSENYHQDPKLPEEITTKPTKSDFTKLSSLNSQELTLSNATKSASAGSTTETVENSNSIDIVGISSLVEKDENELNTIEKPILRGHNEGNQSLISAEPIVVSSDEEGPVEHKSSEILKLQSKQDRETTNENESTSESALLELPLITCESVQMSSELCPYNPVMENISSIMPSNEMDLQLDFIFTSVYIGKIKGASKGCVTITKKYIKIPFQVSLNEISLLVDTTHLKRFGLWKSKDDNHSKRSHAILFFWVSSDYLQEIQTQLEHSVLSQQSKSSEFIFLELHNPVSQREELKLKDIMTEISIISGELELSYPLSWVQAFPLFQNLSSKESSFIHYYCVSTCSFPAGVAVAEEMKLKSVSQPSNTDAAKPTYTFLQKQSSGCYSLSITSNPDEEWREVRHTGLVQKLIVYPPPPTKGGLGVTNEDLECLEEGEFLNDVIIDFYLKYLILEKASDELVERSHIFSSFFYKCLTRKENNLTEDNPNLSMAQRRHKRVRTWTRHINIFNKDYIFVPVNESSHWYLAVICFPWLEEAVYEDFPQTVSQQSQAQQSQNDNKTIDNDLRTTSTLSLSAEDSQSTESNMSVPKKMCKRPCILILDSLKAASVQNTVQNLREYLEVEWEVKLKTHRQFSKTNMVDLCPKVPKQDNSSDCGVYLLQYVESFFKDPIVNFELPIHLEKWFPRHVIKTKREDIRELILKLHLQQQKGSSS
Type of test: functional.

Test [8] addresses T2, Sentrin-specific protease 6 (Homo sapiens, UniProt Q9GZR1).
T2 sequence (Q9GZR1 whole entry): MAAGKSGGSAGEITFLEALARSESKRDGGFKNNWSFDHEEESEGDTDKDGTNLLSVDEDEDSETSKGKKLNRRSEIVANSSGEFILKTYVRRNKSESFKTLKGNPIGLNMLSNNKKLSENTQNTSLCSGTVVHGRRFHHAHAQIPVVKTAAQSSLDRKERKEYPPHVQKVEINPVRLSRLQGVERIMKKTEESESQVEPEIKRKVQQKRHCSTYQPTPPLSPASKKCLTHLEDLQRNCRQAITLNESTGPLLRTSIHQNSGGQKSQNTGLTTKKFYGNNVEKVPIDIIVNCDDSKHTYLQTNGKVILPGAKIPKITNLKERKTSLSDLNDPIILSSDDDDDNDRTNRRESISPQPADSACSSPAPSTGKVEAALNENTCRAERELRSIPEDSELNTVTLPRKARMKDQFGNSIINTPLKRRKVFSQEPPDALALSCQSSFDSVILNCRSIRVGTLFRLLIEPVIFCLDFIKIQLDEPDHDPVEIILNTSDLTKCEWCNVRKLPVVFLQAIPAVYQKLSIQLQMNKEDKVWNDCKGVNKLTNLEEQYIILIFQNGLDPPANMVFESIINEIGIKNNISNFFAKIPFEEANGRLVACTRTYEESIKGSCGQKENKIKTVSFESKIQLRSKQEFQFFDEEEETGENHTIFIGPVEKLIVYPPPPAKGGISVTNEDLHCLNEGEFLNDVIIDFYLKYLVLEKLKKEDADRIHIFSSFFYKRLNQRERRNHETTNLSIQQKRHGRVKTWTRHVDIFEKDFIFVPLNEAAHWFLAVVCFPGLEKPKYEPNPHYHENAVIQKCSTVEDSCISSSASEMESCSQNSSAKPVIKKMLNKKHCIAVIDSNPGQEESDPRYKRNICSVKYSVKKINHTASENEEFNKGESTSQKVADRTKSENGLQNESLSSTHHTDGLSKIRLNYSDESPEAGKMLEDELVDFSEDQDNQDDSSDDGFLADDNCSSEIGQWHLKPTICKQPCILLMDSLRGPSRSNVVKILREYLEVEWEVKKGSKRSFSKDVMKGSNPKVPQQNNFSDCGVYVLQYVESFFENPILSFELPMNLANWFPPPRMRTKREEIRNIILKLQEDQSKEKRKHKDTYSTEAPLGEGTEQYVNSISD
It is filed as functional.

The next test addresses T3, Caspase-3 (Homo sapiens, UniProt P42574).
T3 sequence (P42574 whole entry): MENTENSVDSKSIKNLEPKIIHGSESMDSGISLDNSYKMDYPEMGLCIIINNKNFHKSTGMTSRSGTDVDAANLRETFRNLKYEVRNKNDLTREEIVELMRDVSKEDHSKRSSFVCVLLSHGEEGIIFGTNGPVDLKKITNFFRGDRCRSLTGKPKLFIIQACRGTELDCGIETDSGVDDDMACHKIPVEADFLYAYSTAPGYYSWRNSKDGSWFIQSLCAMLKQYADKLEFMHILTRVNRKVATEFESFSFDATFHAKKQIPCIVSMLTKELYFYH
It is filed as functional.

In test [9] the target is T4, Sentrin-specific protease 8 (Homo sapiens, UniProt Q96LD8).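 Note: luminescence read-out of SENP8 inhibition, dose-response confirmation following an ultra-high-throughput screen.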
T4 sequence (Q96LD8 whole entry): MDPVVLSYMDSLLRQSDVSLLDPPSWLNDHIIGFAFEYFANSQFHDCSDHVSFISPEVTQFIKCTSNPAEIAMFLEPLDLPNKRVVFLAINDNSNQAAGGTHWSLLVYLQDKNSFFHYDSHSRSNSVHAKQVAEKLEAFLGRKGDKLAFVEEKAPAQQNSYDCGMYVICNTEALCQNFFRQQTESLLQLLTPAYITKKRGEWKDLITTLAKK
Type of test: functional.

A short description of test [10]: HEp-2 cell cytotoxicity, dose response, cytotoxicity control for RSV inhibitor project, HTS (AID 2410). It is filed as functional. Conditions: human respiratory syncytial virus.
A further test concerns H9c2. As to the kind of experiment: cells. The note with it: Rattus norvegicus, H9c2, Myocardium. Type of test: functional, cell-based.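 Note: confirmatory concentration-response retest of ultra-high-throughput screening hits for modulation of myocardial damage; cell death induced by hydrogen peroxide oxidative stress; compound pretreatment for 60 min then peroxide exposure for 2 h; potency is for protecting the cells against peroxide damage rather than for killing them.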
Test [11] relates to Vero. The experiment in a line: Vero cell cytotoxicity, cytotoxicity control for flavivirus capping enzyme inhibitors (AID 588742). It is filed as functional. The note with it: Chlorocebus sabaeus.

Molecules are shown by their SMILES. Active and inactive are the calls of the source. Square brackets hold non-standard residues; d marks the D form. Peptide text beside a SMILES is read from it. * marks the point of attachment. Hyp = O=C(O)[CH]1C[CH](O)CN1; Cbz = O=C(OCc1ccccc1)*; OBn = c1ccc(CO*)cc1

Consider `CCOCCCn1c(=S)[nH]c2ncccc2c1=O`, for which the AC50 – broadly, the concentration at which the activity in the assay is half-maximal – in the test on HEK293 was 135 µM (active).

On to `O=C(CCCN1C(=O)/C(=C/c2cccc(Br)c2)SC1=S)NCCCN1CCOCC1`, for which the EC50 (as a rule, the concentration needed to bring the measured effect to its halfway point) with BJ [1] was 14.7 µM (active); in the test with BJ [2], 2.78 µM (inconclusive); in test [3], 17.1 µM (active); with BJ [5], > 150 µM (not active); in the test with BJ [6], > 133 µM (inactive). Also, the CC50 – broadly, the concentration giving 50% cytotoxicity – with Vero [4] was > 25 µM (active).

Take `Cc1cc(C=C2C(=O)c3ccccc3C2=O)c(C)n1C`: the IC50 (usually the midpoint of a concentration-inhibition curve) is 24.6 µM (active) in test [7], 56.1 µM (active) in [8], 35.2 µM (active) at Caspase-3 and 74.6 µM (active) in [9].

`O=C(c1cc(-c2ccc(Cl)cc2Cl)on1)N1CCCCCC1`: the IC50 is 6.51 µM (active) in test [7], 18.5 µM (active) in test [8], 17.2 µM (active) at Caspase-3 and 20.5 µM (active) in test [9]. In [10], the CC50 was 39.3 µM (active).

`CCCCOC(=O)Nc1ccc2c(C)cc(=O)oc2c1`: the IC50 in test [7] was 4.58 µM (active); in test [8], 8.26 µM (active); at Caspase-3, 7.45 µM (active); in [9] it was 12.7 µM (active).

Turning to `Oc1ccc2oc3c(c2c1/C=N/Cc1ccncc1)CCCC3`, the IC50 in the test with H9c2 was > 79 µM (inactive). Also, the CC50 with Vero [11] was > 40 µM (active).

Turning to `CC(NC(=O)CNC(=O)OCc1ccccc1)C(=O)N1CC(O)CC1C(=O)OCc1ccccc1` (stereo not drawn) (Cbz-Gly-Ala-[Hyp]-OBn; configuration not given here), the AC50 in the test with HEK293 is 273 µM (active).
